Measurements taken from patent US20240197726A1, “NOVEL TETRAHYDROISOQUINOLINE ALKALOID COMPOUND CONTAINING MACROCYCLE” (THE UNIVERSITY OF TOKYO, priority 2021, published 2024).
Where two headings read alike, the source gives them in different places.

Experiments:
[1] = tested on: MCF-7 breast cancer cells; settings: MCF-7, reference values from literature (Leal et al. Br. J Pharmacol, 2010), read-out: GI50 value: 50% growth inhibitory concentration, cited from earlier work
[2] = tested on: MDA-MB-231 breast cancer cells; settings: MDA-MB-231; reference values from literature (Leal et al. Br. J Pharmacol, 2010); read-out: GI50 value: 50% growth inhibitory concentration; cited from earlier work
[3] = tested on: HT-29 colorectal cancer cells; settings: HT-29; reference values from literature (Leal et al. Br. J Pharmacol, 2010); read-out: GI50 value: 50% growth inhibitory concentration; cited from earlier work
[4] = tested on: HCT-116 colorectal cancer cells; settings: HCT-116; reference values from literature (Leal et al. Br. J Pharmacol, 2010); read-out: GI50 value: 50% growth inhibitory concentration; cited from earlier work
[5] = tested on: NCI-H23 lung cancer cells; settings: NCI-H23; reference values from literature (Leal et al. Br. J Pharmacol, 2010); read-out: GI50 value: 50% growth inhibitory concentration; cited from earlier work
[6] = tested on: NCI-H460 lung cancer cells; settings: NCI-H460; reference values from literature (Leal et al. Br. J Pharmacol, 2010); read-out: GI50 value: 50% growth inhibitory concentration; cited from earlier work
A549 lung cancer cells [7] = settings: A549; reference values from literature (Leal et al. Br. J Pharmacol, 2010); read-out: GI50 value: 50% growth inhibitory concentration; cited from earlier work
[8] = tested on: HBC-4 breast cancer cells; assay: antitumor activity, sulforhodamine B cell growth assay, HBC-4; assay type: cell-based; settings: HBC-4 breast cancer cells; read-out: antitumor activity GI50 value: 50% growth inhibitory concentration
Procedure: (§1) The THIQ compound containing a macrocyclic structure of the present invention was administered to various cancer cell lines, and the antitumor activity (Go value) was observed. Specifically, verification was performed according to the literature (Yamori, T.; Matsunaga, A.; Sato, S.; Yamazaki, K.; Komi, A.; Ishizu, K. et al. Cancer Res. 1999, 59, 4042) by the following procedure.
(§2) Cells were plated at an appropriate density in a 96-well plate in RPMI 1640 together with 5% fetal bovine serum, and adhered overnight. The cells were exposed to a drug for 48 hours. Then, according to the sulforhodamine B assay described by Skehan et al (Skehan P., Storeng R., Scudiero D., Monks A., McMahon J., Vistica D., Warren J. T., Bokesch H., Kenney S., Boyd M. R. J Natl. Cancer Inst, 1990, 82, 1107-1112), the cell growth rate was measured. The absorbance of the control well (C) and the test well (T) was measured at 525 nm. In addition, the time at which the drug was added was set as time 0, and the absorbance for the test well (T0) was measured. Using these measured values, the cell growth inhibitory effect (% growth=PG) was calculated by the following formula at each concentration of the drug.
(§3) (T<T0): PG=100×[(T−T0)/T]
(§4) The PG values determined above for each cell line were plotted against the concentration (logarithm) on a semi-logarithmic graph, and summarized for each visceral cancer. Concentrations at which the dose-response curve of each cell line crossed the horizontal line of PG=50%, 0%, or −50% were calculated. These concentrations were defined as Log GI50, Log TGI, and Log LC50. Actually, using two data points of the drug concentration before and after crossing each horizontal line, the drug concentration (logarithmic value) at the intersection of the straight line connecting the two points and the horizontal line for each PG was calculated.

[9] = tested on: BSY-1 breast cancer cells; assay: antitumor activity, sulforhodamine B cell growth assay, BSY-1; assay type: cell-based; settings: BSY-1 breast cancer cells; read-out: antitumor activity GI50 value: 50% growth inhibitory concentration
Procedure: as §1, §2, §3, §4

[10] = tested on: HBC-5 breast cancer cells; assay: antitumor activity, sulforhodamine B cell growth assay, HBC-5; assay type: cell-based; settings: HBC-5 breast cancer cells; read-out: antitumor activity GI50 value: 50% growth inhibitory concentration
Procedure: as §1, §2, §3, §4

[11] = tested on: MDA-MB-231 breast cancer cells; assay: antitumor activity, sulforhodamine B cell growth assay, MDA-MB-231; assay type: cell-based; settings: MDA-MB-231 breast cancer cells; read-out: antitumor activity GI50 value: 50% growth inhibitory concentration
Procedure: as §1, §2, §3, §4

[12] = tested on: U251 central nervous system cancer cells; assay: antitumor activity, sulforhodamine B cell growth assay, U251; assay type: cell-based; settings: U251 central nervous system cancer cells; read-out: antitumor activity GI50 value: 50% growth inhibitory concentration
Procedure: as §1, §2, §3, §4

[13] = tested on: SF-295 central nervous system cancer cells; assay: antitumor activity, sulforhodamine B cell growth assay, SF-295; assay type: cell-based; settings: SF-295 central nervous system cancer cells; read-out: antitumor activity GI50 value: 50% growth inhibitory concentration
Procedure: as §1, §2, §3, §4

[14] = tested on: SF-539 central nervous system cancer cells; assay: antitumor activity, sulforhodamine B cell growth assay, SF-539; assay type: cell-based; settings: SF-539 central nervous system cancer cells; read-out: antitumor activity GI50 value: 50% growth inhibitory concentration
Procedure: as §1, §2, §3, §4

[15] = tested on: SNB-75 central nervous system cancer cells; assay: antitumor activity, sulforhodamine B cell growth assay, SNB-75; assay type: cell-based; settings: SNB-75 central nervous system cancer cells; read-out: antitumor activity GI50 value: 50% growth inhibitory concentration
Procedure: as §1, §2, §3, §4

[16] = tested on: SNB-78 central nervous system cancer cells; assay: antitumor activity, sulforhodamine B cell growth assay, SNB-78; assay type: cell-based; settings: SNB-78 central nervous system cancer cells; read-out: antitumor activity GI50 value: 50% growth inhibitory concentration
Procedure: as §1, §2, §3, §4

[17] = tested on: HCC2998 colorectal cancer cells; assay: antitumor activity, sulforhodamine B cell growth assay, HCC2998; assay type: cell-based; settings: HCC2998 colorectal cancer cells; read-out: antitumor activity GI50 value: 50% growth inhibitory concentration
Procedure: as §1, §2, §3, §4

[18] = tested on: KM-12 colorectal cancer cells; assay: antitumor activity, sulforhodamine B cell growth assay, KM-12; assay type: cell-based; settings: KM-12 colorectal cancer cells; read-out: antitumor activity GI50 value: 50% growth inhibitory concentration
Procedure: as §1, §2, §3, §4

[19] = tested on: HT-29 colorectal cancer cells; assay: antitumor activity, sulforhodamine B cell growth assay, HT-29; assay type: cell-based; settings: HT-29 colorectal cancer cells; read-out: antitumor activity GI50 value: 50% growth inhibitory concentration
Procedure: as §1, §2, §3, §4

[20] = tested on: HCT-15 colorectal cancer cells; assay: antitumor activity, sulforhodamine B cell growth assay, HCT-15; assay type: cell-based; settings: HCT-15 colorectal cancer cells; read-out: antitumor activity GI50 value: 50% growth inhibitory concentration
Procedure: as §1, §2, §3, §4

[21] = tested on: HCT-116 colorectal cancer cells; assay: antitumor activity, sulforhodamine B cell growth assay, HCT-116; assay type: cell-based; settings: HCT-116 colorectal cancer cells; read-out: antitumor activity GI50 value: 50% growth inhibitory concentration
Procedure: as §1, §2, §3, §4

[22] = tested on: NCI-H226 lung cancer cells; assay: antitumor activity, sulforhodamine B cell growth assay, NCI-H226; assay type: cell-based; settings: NCl-H226 lung cancer cells; read-out: antitumor activity GI50 value: 50% growth inhibitory concentration
Procedure: as §1, §2, §3, §4

[23] = tested on: NCI-H522 lung cancer cells; assay: antitumor activity, sulforhodamine B cell growth assay, NCI-H522; assay type: cell-based; settings: NCl-H522 lung cancer cells; read-out: antitumor activity GI50 value: 50% growth inhibitory concentration
Procedure: as §1, §2, §3, §4

[24] = tested on: NCI-H460 lung cancer cells; assay: antitumor activity, sulforhodamine B cell growth assay, NCI-H460; assay type: cell-based; settings: NCl--H460 lung cancer cells; read-out: antitumor activity GI50 value: 50% growth inhibitory concentration
Procedure: as §1, §2, §3, §4

A549 lung cancer cells [25] = assay: antitumor activity, sulforhodamine B cell growth assay, A549; assay type: cell-based; settings: A549 lung cancer cells; read-out: antitumor activity GI50 value: 50% growth inhibitory concentration
Procedure: as §1, §2, §3, §4

DMS273 lung cancer cells = assay: antitumor activity, sulforhodamine B cell growth assay, DMS273; assay type: cell-based; settings: DMS273 lung cancer cells; read-out: antitumor activity GI50 value: 50% growth inhibitory concentration
Procedure: as §1, §2, §3, §4

DMS114 lung cancer cells = assay: antitumor activity, sulforhodamine B cell growth assay, DMS114; assay type: cell-based; settings: DMS114 lung cancer cells; read-out: antitumor activity GI50 value: 50% growth inhibitory concentration
Procedure: as §1, §2, §3, §4

LOX-IMVI melanoma cells = assay: antitumor activity, sulforhodamine B cell growth assay, LOX-IMVI; assay type: cell-based; settings: LOX-IMVI melanoma cells; read-out: antitumor activity GI50 value: 50% growth inhibitory concentration
Procedure: as §1, §2, §3, §4

SK-OV-3 cancer cells = assay: antitumor activity, sulforhodamine B cell growth assay, SK-OV-3; assay type: cell-based; settings: SK-OV-3 cervical cancer cells; read-out: antitumor activity GI50 value: 50% growth inhibitory concentration
Procedure: as §1, §2, §3, §4

ACHN kidney cancer cells = assay: antitumor activity, sulforhodamine B cell growth assay, ACHN; assay type: cell-based; settings: ACHN kidney cancer cells; read-out: antitumor activity GI50 value: 50% growth inhibitory concentration
Procedure: as §1, §2, §3, §4

[26] = tested on: St-4 gastric cancer cells; assay: antitumor activity, sulforhodamine B cell growth assay, St-4; assay type: cell-based; settings: SI-4 gastric cancer cells; read-out: antitumor activity GI50 value: 50% growth inhibitory concentration
Procedure: as §1, §2, §3, §4

[27] = tested on: MKN1 gastric cancer cells; assay: antitumor activity, sulforhodamine B cell growth assay, MKN1; assay type: cell-based; settings: MKN1 gastric cancer cells; read-out: antitumor activity GI50 value: 50% growth inhibitory concentration
Procedure: as §1, §2, §3, §4

[28] = tested on: MKN-B gastric cancer cells; assay: antitumor activity, sulforhodamine B cell growth assay, MKN-B; assay type: cell-based; settings: MKN-B gastric cancer cells; read-out: antitumor activity GI50 value: 50% growth inhibitory concentration
Procedure: as §1, §2, §3, §4

[29] = tested on: MKN-A gastric cancer cells; assay: antitumor activity, sulforhodamine B cell growth assay, MKN-A; assay type: cell-based; settings: MKN-A gastric cancer cells; read-out: antitumor activity GI50 value: 50% growth inhibitory concentration
Procedure: as §1, §2, §3, §4

[30] = tested on: MKN45 gastric cancer cells; assay: antitumor activity, sulforhodamine B cell growth assay, MKN45; assay type: cell-based; settings: MKN45 gastric cancer cells; read-out: antitumor activity GI50 value: 50% growth inhibitory concentration
Procedure: as §1, §2, §3, §4

[31] = tested on: DU-145 prostate cancer cells; assay: antitumor activity, sulforhodamine B cell growth assay, DU-145; assay type: cell-based; settings: DU-145 prostate cancer cells; read-out: antitumor activity GI50 value: 50% growth inhibitory concentration
Procedure: as §1, §2, §3, §4

## COc1cc2c(cc1O)CCNC21CS[C@@H]2c3c(OC(C)=O)c(C)c4c(c3C(COC1=O)N1[C@@H]2[C@H]2c3c(cc(C)c(OC)c3O)C[C@@H]([C@@H]1O)N2C)OCO4 (stereo partly shown) [Ecteinascidin 743, reference compound]
[1]; listed as drawing 118
  GI50: 2.6 nM
[1]; listed as drawing 142
  GI50: 2.8 nM
[2]
  GI50: 3.9 nM
[3]
  GI50: 9.8 nM
[4]
  GI50: 4.9 nM
[5]
  GI50: 2.1 nM
[6]
  GI50: 1.8 nM
A549 lung cancer cells [7]
  GI50: 10.4 nM

## CC1=C(C)C(=O)C2=C(CC3(C)[C@H]4c5c(cc(C)c(C)c5C)C[C@@](C)(C(C)N3[C@H]2CNC(=O)C(C)C)N4C)C1=O (stereo partly shown) [drawing 164]
[8]
  GI50: 59 nM
[9]
  GI50: 34 nM
[10]
  GI50: 62 nM
[11]
  GI50: 130 nM
[12]
  GI50: 370 nM
[13]
  GI50: 500 nM
[14]
  GI50: 180 nM
[15]
  GI50: 150 nM
[16]
  GI50: 63 nM
[17]
  GI50: 350 nM
[18]
  GI50: 530 nM
[19]
  GI50: 190 nM
[20]
  GI50: 390 nM
[21]
  GI50: 290 nM
[22]
  GI50: 310 nM
[23]
  GI50: 43 nM
[24]
  GI50: 400 nM
A549 lung cancer cells [25]
  GI50: 1600 nM
DMS273 lung cancer cells
  GI50: 270 nM
DMS114 lung cancer cells
  GI50: 35 nM
LOX-IMVI melanoma cells
  GI50: 61 nM
SK-OV-3 cancer cells
  GI50: 540 nM
ACHN kidney cancer cells
  GI50: 320 nM
[26]
  GI50: 430 nM
[27]
  GI50: 52 nM
[28]
  GI50: 170 nM
[29]
  GI50: 250 nM
[30]
  GI50: 300 nM
[31]
  GI50: 490 nM
